For orientation: IC50 means the concentration that inhibits the measured activity by half. The ED50 is the midpoint of the dose-response relation. Read a low ED50 as greater potency.

The record followed here is patent US7846944B2, “Pyrazolo-pyridinone compounds and methods of use thereof” (Amgen Inc., priority 2007, dated 2010).

Read-outs that look alike come from different tables or passages of the source.

Experiment [1] deals with production of IL-1β, IL-6, and TNF-α by PBMC activated with LPS. The experiment in a line: Lipopolysaccharide-activated PBMC cytokine production assay. The experiment is classed as cell-based. Particulars: read-out: IC50 in the whole blood PMBC assay. As to the method: Lipopolysaccharide-Activated PBMC Cytokine Production Assay
Test compounds were evaluated in vitro for the ability to inhibit the production of IL-1β, IL-6, and TNF-α by PBMC activated with bacterial lipopolysaccharide (LPS). Fresh leukocytes were obtained from a local blood bank, and peripheral blood mononuclear cells (PBMCs) were isolated by density gradient centrifugation on Ficol-Paque Plus (Pharmacia).
Preparation of Test Compound Stock Solutions
All reagents were prepared in RPMI 1640+10% v/v human AB serum+1×Pens/Strep/Glu (assay medium). Test compounds were dissolved in 100% DMSO and serially diluted in 96-well polypropylene round bottom micro titer plates (drug plate). Serial dilutions were then diluted 1:250 into assay medium to a 4× working concentration. Compound serial dilutions were half-log, 10 point titrations with a final starting concentration of 1 μM.
Treatment of Cells with Test Compounds and Activation with Lipopolysaccharide
LPS was prepared to a 4× concentration in assay medium. 100 μl of PBMC (1×10^6 cells/ml) were plated in a 96-well polystyrene flat bottom micro titer tissue culture plate and incubated with 50 μl of 4× compound serial dilution for 1 hour at 37° C., 5% CO2 in a tissue culture incubator. 50 μl 4×LPS or control was added and the plates were incubated at 37° C., 5% CO2 in a tissue culture incubator for 18 hours. The final DMSO concentration was 0.1%. The total volume was 200 μL. The final LPS concentration was 100 ng/mL. After 18 hours culture supernatants were removed and IL-1β, IL-6, and TNF-α presence in the supernatants was quantified using MSD ECL based technology.
Cytokine Measurements 20 μL of culture supernatant were added to MSD plates, and incubated for one hour at room temperature. 20 μL of detection antibody diluted in antibody diluent (1 μg/mL), and 110 μL of 2× Read Buffer P was added, and incubated for one hour at RT. Electrochemiluminescence was measured using the SECTOR HTS Imager (MSD, Gaithersburg, Md.). Data Analysis
Compound IC50 values were calculated as follows: The proportion of cytokine production in the presence of compound compared to the cytokine production in the presence of the DMSO vehicle alone (Hi control) was calculated using the formula: Percent Control (POC)=(compound−average Lo)/(average Hi−average Lo)*100.

For a further experiment, the target named is recombinant human p38α (Homo sapiens, UniProt Q16539). Description: Purified and activated recombinant human p38α HTRF kinase assay. The experiment is classed as biochemical. Particulars: 1 nM p38α, 50 μM ATP, GST-ATF2 substrate, read-out: p38a IC50. (In general: In TR-FRET formats the signal depends on donor and acceptor labels being close together.)
Experiment [2] deals with TNF-α secretion by LPS-treated THP1 cells. The experiment in a line: Lipopolysaccharide-activated THP1 cell TNF production assay. The following applies: Homo sapiens, read-out: IC50 in the THP-1 cellular TNF production assay. The class given is cell-based.
The test system of experiment [3] is Collagen-Induced Arthritis (CIA) Model in Rats. The experiment in a line: Collagen-induced arthritis (CIA) model in rats. Particulars: 168 h; rat, treated for 7 days from onset of arthritis. The class given is in vivo. As to the method:
Collagen-Induced Arthritis (CIA) Model in Rats
Porcine type II collagen (10 mg) was dissolved in 0.1N acetic acid (5 mL) two days prior to use on a rotating plate in the refrigerator. Subsequently, collagen was emulsified 1:1 with Freund's incomplete adjuvant using an emulsification needle and glass syringes yielding a final concentration of 1 mg/mL.
Disease was induced in each animal by intradermal injection of emulsified collagen in IFA at 10 different sites (100 μL per site) over the back. […] At onset (defined as Day 0), rats were randomized to treatment groups and therapy was initiated with drug or vehicle control as noted in table above. Rats were treated for 7 days and were sacrificed on Day 8.

The mark [4] stands for this setting: LPS 100 ng/mL, 18 hours, IL-1β, IL-6, TNF-α.
The mark [5] stands for this setting: THP-1, LPS, 3 hours, THP1 cells.

Sequence of recombinant human p38α (Q16539 whole entry): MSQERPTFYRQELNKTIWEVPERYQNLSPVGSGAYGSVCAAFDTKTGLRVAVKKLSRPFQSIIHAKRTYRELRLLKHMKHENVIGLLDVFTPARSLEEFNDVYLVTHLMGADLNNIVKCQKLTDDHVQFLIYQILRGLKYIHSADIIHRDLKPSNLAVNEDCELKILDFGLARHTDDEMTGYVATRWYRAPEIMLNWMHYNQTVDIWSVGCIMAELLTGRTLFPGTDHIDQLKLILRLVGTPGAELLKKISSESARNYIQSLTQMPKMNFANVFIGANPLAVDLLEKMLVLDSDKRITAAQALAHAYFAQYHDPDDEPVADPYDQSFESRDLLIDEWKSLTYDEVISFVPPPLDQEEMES

Take `Cc1c(F)cc(C(=O)NC2CC2)cc1-c1cc2cnn(-c3c(F)cccc3F)c2n(C)c1=O` [Example 2, N-cyclopropyl-3-(1-(2,6-difluorophenyl)-7-methyl-6-oxo-6,7-dihydro-1H-pyrazolo[3,4-b]pyridin-5-yl)-5-fluoro-4-methylbenzamide]: the IC50 was ≤ 125 nM in experiment [1] (setting [4]), 1.8 nM at recombinant human p38α and ≤ 175 nM in experiment [2] (setting [5]).
With `Cc1c(F)cc(C(=O)Nc2ccon2)cc1-c1cc2cnn(-c3c(F)cccc3F)c2n(C)c1=O` [Example 3, 3-(1-(2,6-difluorophenyl)-7-methyl-6-oxo-6,7-dihydro-1H-pyrazolo[3,4-b]pyridin-5-yl)-5-fluoro-N-3-isoxazolyl-4-methylbenzamide], the IC50 is ≤ 125 nM in experiment [1] (setting [4]), 2.4 nM on recombinant human p38α and ≤ 175 nM in experiment [2] (setting [5]).
Take `Cc1ccc(C(=O)NC2CC2)cc1-c1cc2cnn(-c3c(F)cccc3F)c2n(C)c1=O` [Example 7, N-cyclopropyl-3-(1-(2,6-difluorophenyl)-7-methyl-6-oxo-6,7-dihydro-1H-pyrazolo[3,4-b]pyridin-5-yl)-4-methylbenzamide]: the IC50 in experiment [1] (setting [4]) is ≤ 125 nM; in experiment [2] (setting [5]), ≤ 175 nM. For the same compound, it took a dose of 0.01 mg/kg to reach the 50% effect level in experiment [3] (ED50).
With `Cc1c(F)cc(C(=O)NC2CC2)cc1-c1cc2cnn(-c3ccccc3Cl)c2n(C)c1=O` [Example 8, 3-(1-(2-chlorophenyl)-7-methyl-6-oxo-6,7-dihydro-1H-pyrazolo[3,4-b]pyridin-5-yl)-N-cyclopropyl-5-fluoro-4-methylbenzamide], the IC50 was ≤ 125 nM in experiment [1] (setting [4]), 2.3 nM at recombinant human p38α and ≤ 175 nM in experiment [2] (setting [5]).
In the same order, the values of `Cc1ccc(C(=O)NC2CC2)cc1-c1cc2cnn(-c3ccccc3Cl)c2n(C)c1=O` [Example 12, 3-(1-(2-chlorophenyl)-7-methyl-6-oxo-6,7-dihydro-1H-pyrazolo[3,4-b]pyridin-5-yl)-N-cyclopropyl-4-methylbenzamide] are ≤ 125 nM, 1.8 nM and ≤ 175 nM.
As for `Cc1ccc(C(=O)NC2CC2)cc1-c1cc2cnn(-c3ccc(F)cc3F)c2n(C)c1=O` [Example 13, N-cyclopropyl-3-(1-(2,4-difluorophenyl)-7-methyl-6-oxo-6,7-dihydro-1H-pyrazolo[3,4-b]pyridin-5-yl)-4-methylbenzamide], the half-maximal inhibitory concentration (IC50) was ≤ 125 nM in experiment [1] (18 h) and ≤ 175 nM in experiment [2] (THP-1, 3 h). This compound also registered an ED50 in experiment [3] of 0.02 mg/kg.
For the compound `Cc1ccc(C(=O)Nc2ccon2)cc1-c1cc2cnn(-c3ccc(F)cc3F)c2n(C)c1=O` [Example 27, 3-(1-(2,4-difluorophenyl)-7-methyl-6-oxo-6,7-dihydro-1H-pyrazolo[3,4-b]pyridin-5-yl)-N-3-isoxazolyl-4-methylbenzamide], the IC50 was ≤ 125 nM in experiment [1] (setting [4]), 2.4 nM at recombinant human p38α and ≤ 175 nM in experiment [2] (setting [5]).
In the same order, the values of `Cc1c(F)cc(C(N)=O)cc1-c1cc2cnn(-c3c(F)cccc3F)c2n(C)c1=O` [Example 31, 3-(1-(2,6-difluorophenyl)-7-methyl-6-oxo-6,7-dihydro-1H-pyrazolo[3,4-b]pyridin-5-yl)-5-fluoro-4-methylbenzamide] are ≤ 125 nM, 1 nM and ≤ 175 nM.
`Cc1ccc(C(N)=O)cc1-c1cc2cnn(-c3c(F)cccc3F)c2n(C)c1=O` [Example 44, 3-(1-(2,6-difluorophenyl)-7-methyl-6-oxo-6,7-dihydro-1H-pyrazolo[3,4-b]pyridin-5-yl)-4-methylbenzamide]: the IC50 is ≤ 125 nM in experiment [1] (setting [4]), 3.4 nM on recombinant human p38α and ≤ 175 nM in experiment [2] (setting [5]). Moreover, the 50% effect level in experiment [3] (ED50) was put at a dose of 0.07 mg/kg.
